Structures are written as SMILES. pEC50, pIC50: −log10 of the molar value. Where only a bound is given, the exact number is not on record here.

The pEC50 is the EC50 on a negative log10 scale, so that one unit is a factor of ten. A word on the pIC50: it is −log10 of the IC50, conventionally taken in molar units. The low end stands for a high IC50, the high end for a low IC50.

The subject of one assay is HCV type 1b replicon (Huh-7 luc/neo, Huh-Luc). Put plainly: Replicon assay, Huh-Luc cells with HCV type 1b replicon (stable), luciferase readout. The assay is classed as cell-based. The following applies: Hepatitis C virus, Huh-7, 72 h, Huh-Luc HCV 1b replicon, three days incubation, luciferase activity; read-out: EC50. The source says:
The compounds of formula I may be examined for activity in the inhibition of HCV RNA replication in a cellular assay aimed at identifying compounds that inhibit a HCV functional cellular replicating cell line, also known as HCV replicons. A suitable cellular assay is based on a bicistronic expression construct, as described by Lohmann et al. (1999), Science vol. 285 pp. 110-113 with modifications described by Krieger et al. (2001), Journal of Virology 75: 4614-4624, in a multi-target screening strategy.
The assay utilizes the stably transfected cell line Huh-7 luc/neo (hereafter referred to as Huh-Luc). This cell line harbors an RNA encoding a bicistronic expression construct comprising the wild type NS3-NS5B regions of HCV type 1b translated from an Internal Ribosome Entry Site (IRES) from encephalomyocarditis virus (EMCV), preceded by a reporter portion (FfL-luciferase), and a selectable marker portion (neo^R, neomycine phosphotransferase). The construct is bordered by 5′ and 3′ NTRs (non-translated regions) from HCV type 1b. Continued culture of the replicon cells in the presence of G418 (neo^R) is dependent on the replication of the HCV RNA. The stably transfected replicon cells that express HCV RNA, which replicates autonomously and to high levels, encoding inter alia luciferase, are used for screening the antiviral compounds.
The replicon cells are plated in 384 well plates in the presence of the test and control compounds which are added in various concentrations. Following an incubation of three days, HCV replication is measured by assaying luciferase activity (using standard luciferase assay substrates and reagents and a Perkin Elmer ViewLux™ ultraHTS microplate imager). Replicon cells in the control cultures have high luciferase expression in the absence of any inhibitor. The inhibitory activity of a compound on luciferase activity is monitored on the Huh-Luc cells, enabling a dose-response curve for each test compound. EC50 values are then calculated, which value represents the amount of the compound required to decrease the level of detected luciferase activity by 50%, or more specifically, the ability of the genetically linked HCV replicon RNA to replicate.
For orientation: A replicon is a self-replicating genome or part of one, used to study replication in cells.
Regarding `O=c1ccn([C@@H]2O[C@H](CO)[C@@H](O)[C@]2(F)Cl)c(=O)[nH]1` [Example 1, 1-((2R,3S,4R,5R)-3-chloro-3-fluoro-4-hydroxy-5-(hydroxymethyl)tetrahydrofuran-2-yl)pyrimidine-2,4(1H,3H)-dione], the pEC50 is less than 4.30.
Still for that read-out and setting: next, `C[C@H](NP(=O)(OC[C@H]1O[C@@H](n2ccc(=O)[nH]c2=O)[C@@](F)(Cl)[C@@H]1O)Oc1ccccc1)C(=O)OC1CCCCC1` (stereo partly drawn) [Example 4, (2S)-cyclohexyl 2-(((((2R,3R,4S,5R)-4-chloro-5-(2,4-dioxo-3,4-dihydropyrimidin-1(2H)-yl)-4-fluoro-3-hydroxytetrahydrofuran-2-yl)methoxy)(phenoxy)phosphoryl)amino)propanoate]: 7.05; `CC[C@@H](C)OC(=O)[C@H](C)NP(=O)(OC[C@H]1O[C@@H](n2ccc(=O)[nH]c2=O)[C@@](F)(Cl)[C@@H]1O)Oc1ccccc1` (stereo partly drawn) [Example 5]: 7.37.
Still for that read-out and setting: next, `CCOC(=O)[C@H](C)NP(=O)(OC[C@H]1O[C@@H](n2ccc(=O)[nH]c2=O)[C@@](F)(Cl)[C@@H]1O)Oc1ccccc1` (stereo partly drawn) [Example 6]: 7.10; `CCC(CC)COC(=O)[C@H](C)NP(=O)(OC[C@H]1O[C@@H](n2ccc(=O)[nH]c2=O)[C@@](F)(Cl)[C@@H]1O)Oc1ccccc1` (stereo partly drawn) [Example 7]: 7.26.
In the case of `CCCCOC(=O)[C@H](C)NP(=O)(OC[C@H]1O[C@@H](n2ccc(=O)[nH]c2=O)[C@@](F)(Cl)[C@@H]1O)Oc1ccccc1` (stereo partly drawn) [Example 8], the pEC50 was 7.36.
As to `CC(C)OC(=O)[C@H](C)NP(=O)(OC[C@H]1O[C@@H](n2ccc(=O)[nH]c2=O)[C@@](F)(Cl)[C@@H]1O)Oc1ccc2c(c1)OCO2` (stereo partly drawn) [Example 9], the negative-log EC50 (pEC50) was 6.72.
Turning to `COc1ccccc1OP(=O)(N[C@@H](C)C(=O)OC(C)C)OC[C@H]1O[C@@H](n2ccc(=O)[nH]c2=O)[C@@](F)(Cl)[C@@H]1O` (stereo partly drawn) [Example 10], the pEC50 is 7.35.
For the compound `COc1ccc(OP(=O)(N[C@@H](C)C(=O)OC(C)C)OC[C@H]2O[C@@H](n3ccc(=O)[nH]c3=O)[C@@](F)(Cl)[C@@H]2O)cc1` (stereo partly drawn) [Example 11], the pEC50 was 6.82.
For `CC(C)OC(=O)[C@H](C)NP(=O)(OC[C@H]1O[C@@H](n2ccc(=O)[nH]c2=O)[C@@](F)(Cl)[C@@H]1O)Oc1cccc(C2CC2)c1` (stereo partly drawn) [Example 12], the negative-log EC50 (pEC50) is 6.74.
Same read-out and setting: next, `CC[C@H](C)OC(=O)[C@H](C)NP(=O)(OC[C@H]1O[C@@H](n2ccc(=O)[nH]c2=O)[C@@](F)(Cl)[C@@H]1O)Oc1ccccc1` (stereo partly drawn) [Example 13]: 7.21.
Turning to `CCCOC(=O)[C@H](C)NP(=O)(OC[C@H]1O[C@@H](n2ccc(=O)[nH]c2=O)[C@@](F)(Cl)[C@@H]1O)Oc1ccccc1` (stereo partly drawn) [Example 14], the negative logarithm of the EC50 (pEC50) was 7.12.
On the same count and under the same terms, next, `CC(C)OC(=O)[C@H](C)NP(=O)(OC[C@H]1O[C@@H](n2ccc(=O)[nH]c2=O)[C@@](F)(Cl)[C@@H]1O)Oc1cccc(C2CCC2)c1` (stereo partly drawn) [Example 15]: 7.05; `CC(C)OC(=O)[C@H](C)NP(=O)(OC[C@H]1O[C@@H](n2ccc(=O)[nH]c2=O)[C@@](F)(Cl)[C@@H]1O)Oc1cccc(C2(C)CC2)c1` (stereo partly drawn) [Example 16]: 7.04; `CC(C)OC(=O)[C@H](C)NP(=O)(OC[C@H]1O[C@@H](n2ccc(=O)[nH]c2=O)[C@@](F)(Cl)[C@@H]1O)Oc1ccc(C2(C)CC2)cc1` (stereo partly drawn) [Example 17]: 6.96.
Still for that read-out and setting: next, `COC[C@@H](C)OC(=O)[C@H](C)NP(=O)(OC[C@H]1O[C@@H](n2ccc(=O)[nH]c2=O)[C@@](F)(Cl)[C@@H]1O)Oc1ccccc1` (stereo partly drawn) [Example 20]: 7.19; `COCC(COC)OC(=O)[C@H](C)NP(=O)(OC[C@H]1O[C@@H](n2ccc(=O)[nH]c2=O)[C@@](F)(Cl)[C@@H]1O)Oc1ccccc1` (stereo partly drawn) [Example 21]: 6.68; `CCC(CC)OC(=O)[C@H](C)NP(=O)(OC[C@H]1O[C@@H](n2ccc(=O)[nH]c2=O)[C@@](F)(Cl)[C@@H]1O)Oc1ccccc1` (stereo partly drawn) [Example 22]: 7.24.
The same measure, in the same setting: the same measure for `CC(C)OC(=O)[C@H](C)NP(=O)(OC[C@H]1O[C@@H](n2ccc(=O)[nH]c2=O)[C@@](F)(Cl)[C@@H]1O)Oc1cccc2ncccc12` (stereo partly drawn) [Example 24]: 5.85.
In the case of `COC[C@H](C)OC(=O)[C@H](C)NP(=O)(OC[C@H]1O[C@@H](n2ccc(=O)[nH]c2=O)[C@@](F)(Cl)[C@@H]1O)Oc1ccccc1` (stereo partly drawn) [Example 25], the pEC50 was 7.00.
The same measure, in the same setting: the same measure for `CC(C)OC(=O)[C@H](C)NP(=O)(OC[C@H]1O[C@@H](n2ccc(N)nc2=O)[C@@](F)(Cl)[C@@H]1O)Oc1ccccc1` (stereo partly drawn) [Example 26, (2S)-Isopropyl 2-(((((2R,3R,4S,5R)-5-(4-amino-2-oxopyrimidin-1(2H)-yl)-4-chloro-4-fluoro-3-hydroxytetrahydrofuran-2-yl)methoxy)(phenoxy)phosphoryl)amino)propanoate]: 7.07.

The same assay, now with this note: Huh-Luc HCV 1b replicon, three days incubation, luciferase activity; read-out: EC50.
Take `CC(C)OC(=O)[C@H](C)NP(=O)(OC[C@H]1O[C@@H](n2ccc(=O)[nH]c2=O)[C@@](F)(Cl)[C@@H]1O)Oc1ccccc1` (stereo partly drawn) [Example 23]: the negative logarithm of the EC50 (pEC50) is 5.29.

The next assay addresses HCV NS5B-21 (Hepatitis C virus genotype 1b (isolate Con1) (HCV), UniProt Q9WMX2). Briefly: Enzyme assay, HCV NS5B-21 SPA (scintillation proximity assay). The assay is classed as biochemical. The following applies: triphosphates. Here is the method:
It is this triphosphate which is believed to be the antivirally active species. The enzyme assay described here may be used to confirm that compounds of the invention are antivirally active as the 5′-triphosphate metabolite.
The enzyme assay measures the inhibitory effect of triphosphate compounds in an HCV NS5B-21 (21-amino acid C-terminally truncated version) SPA assay (scintillation proximity assay). The assay is performed by evaluating the amount of radiolabelled ATP incorporated by HCV NS5B-21 into newly synthesized RNA using an heterogeneous biotinylated RNA template.
To determine IC50 values the compounds are tested at various concentrations in a final volume of 100 μl of reaction mixture. The reaction is stopped by addition of 0.5M EDTA solution.
The samples are transferred into flashplates precoated with streptavidin. The incorporated radioactivity is quantified using a scintillation counter (Wallac Microbeta Trilux).
The assay should include enzyme controls (about four, containing 1 μl DMSO instead of inhibitor) and background control containing all ingredients except template.
Compounds are serially diluted in DMSO on a separate dilution plate to 100× the final desired assay concentrations. […]
Incubate the plate over night and read the flash plate in the Microbeta Trilux using the protocol Flash plates H3. […]
IC50 is determined using Graphpad Prism. […]
A general note: In a scintillation proximity assay essentially only radioactivity close to the scintillant gives light.
For the compound `O=c1ccn([C@@H]2O[C@H](COP(=O)(O)OP(=O)(O)OP(=O)(O)O)[C@@H](O)[C@]2(F)Cl)c(=O)[nH]1` [Example 3, Lithium ((2R,3R,4 S,5R)-4-chloro-5-(2,4-dioxo-3,4-dihydropyrimidin-1(2H)-yl)-4-fluoro-3-hydroxytetrahydrofuran-2-yl)methyl triphosphate], the negative logarithm of the IC50 (pIC50) is 6.14.
The compound `Nc1ccn([C@@H]2O[C@H](COP(=O)(O)OP(=O)(O)OP(=O)(O)O)[C@@H](O)[C@]2(F)Cl)c(=O)n1` [Example 27, (((2R,3R,4 S, 5R)-5-(4-amino-2-oxopyrimidin-1(2H)-yl)-4-chloro-4-fluoro-3-hydroxytetrahydrofuran-2-yl)methyl)triphosphoric acid] gave a pIC50 of 7.05.

The values above are taken from patent US10106571B2, “HCV polymerase inhibitors” (priority 2013, dated 2018).
